Source: the kinase profiling compilation of Christmann-Franck et al. (2016)

How the values were obtained:
Assay in all cases: radiometric filter-binding kinase assay, Kinase HotSpot
Settings in all cases: compound 0.5 µM; ATP 10 µM
[1] = molecular target: IKBKB (human) (UniProt O14920)
[2] = molecular target: CDK6 CCND3 (human) (UniProt P30281+Q00534)
[3] = molecular target: MAPKAPK5 (human) (UniProt Q8IW41)
[4] = molecular target: TAOK2 (human) (UniProt Q9UL54)
[5] = molecular target: PAK1 (human) (UniProt Q13153)
[6] = molecular target: FER (human) (UniProt P16591)
[7] = molecular target: TEK (human) (UniProt Q02763)
[8] = molecular target: ABL2 (human) (UniProt P42684)
[9] = molecular target: RPS6KB1 (human) (UniProt P23443)
[10] = molecular target: CDK1 CCNB1 (human) (UniProt P06493+P14635)
[11] = molecular target: CAMKK1 (human) (UniProt Q8N5S9)
[12] = molecular target: CDC42BPB (human) (UniProt Q9Y5S2)
[13] = molecular target: FRK (human) (UniProt P42685)
[14] = molecular target: FGFR2 (human) (UniProt P21802)
[15] = molecular target: BLK (human) (UniProt P51451)
[16] = molecular target: TYRO3 (human) (UniProt Q06418)
[17] = molecular target: MAP3K14 (human) (UniProt Q99558)
[18] = molecular target: ACVRL1 (human) (UniProt P37023)
[19] = molecular target: STK3 (human) (UniProt Q13188)
[20] = molecular target: CLK2 (human) (UniProt P49760)
[21] = molecular target: LRRK2 (human) (UniProt Q5S007)
[22] = molecular target: MAP2K1 (human) (UniProt Q02750)
[23] = molecular target: AKT3 (human) (UniProt Q9Y243)
[24] = molecular target: NEK2 (human) (UniProt P51955)
[25] = molecular target: ULK2 (human) (UniProt Q8IYT8)
[26] = molecular target: MST4 (human) (UniProt Q9P289)
[27] = molecular target: RPS6KB2 (human) (UniProt Q9UBS0)
[28] = molecular target: HIPK4 (human) (UniProt Q8NE63)
[29] = molecular target: PRKD1 (human) (UniProt Q15139)
[30] = molecular target: STK11 (human) (UniProt Q15831)
[31] = molecular target: LCK (human) (UniProt P06239)
[32] = molecular target: SRPK3 (human) (UniProt Q9UPE1)
[33] = molecular target: GRK4 (human) (UniProt P32298)
[34] = molecular target: STK16 (human) (UniProt O75716)
[35] = molecular target: GRK7 (human) (UniProt Q8WTQ7)
[36] = molecular target: NEK7 (human) (UniProt Q8TDX7)
[37] = molecular target: TAOK3 (human) (UniProt Q9H2K8)
[38] = molecular target: PDGFRB (human) (UniProt P09619)
[39] = molecular target: CAMK4 (human) (UniProt Q16566)
[40] = molecular target: CAMK1G (human) (UniProt Q96NX5)
[41] = molecular target: HIPK2 (human) (UniProt Q9H2X6)
[42] = molecular target: MAP3K9 (human) (UniProt P80192)

CDK6 CCND3 (human), sequence (P30281 whole entry, looked up): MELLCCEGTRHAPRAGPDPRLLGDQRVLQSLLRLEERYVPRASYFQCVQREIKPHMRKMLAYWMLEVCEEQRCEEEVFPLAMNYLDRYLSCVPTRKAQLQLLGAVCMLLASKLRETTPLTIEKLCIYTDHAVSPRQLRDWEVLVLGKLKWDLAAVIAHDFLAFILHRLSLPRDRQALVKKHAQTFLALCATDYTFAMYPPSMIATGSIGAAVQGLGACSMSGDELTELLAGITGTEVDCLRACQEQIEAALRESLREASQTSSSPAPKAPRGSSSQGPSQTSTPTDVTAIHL
CDK6 CCND3 (human), sequence (Q00534 whole entry, looked up): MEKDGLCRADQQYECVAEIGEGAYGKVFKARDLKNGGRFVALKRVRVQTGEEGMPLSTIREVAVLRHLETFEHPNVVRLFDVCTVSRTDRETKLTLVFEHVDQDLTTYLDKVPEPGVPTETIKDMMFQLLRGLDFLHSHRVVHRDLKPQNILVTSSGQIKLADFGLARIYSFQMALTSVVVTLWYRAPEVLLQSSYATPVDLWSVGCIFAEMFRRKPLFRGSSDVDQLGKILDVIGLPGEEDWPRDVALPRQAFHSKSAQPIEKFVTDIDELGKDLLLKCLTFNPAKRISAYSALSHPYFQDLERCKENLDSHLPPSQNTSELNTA
STK3 (human), sequence (Q13188 whole entry, looked up): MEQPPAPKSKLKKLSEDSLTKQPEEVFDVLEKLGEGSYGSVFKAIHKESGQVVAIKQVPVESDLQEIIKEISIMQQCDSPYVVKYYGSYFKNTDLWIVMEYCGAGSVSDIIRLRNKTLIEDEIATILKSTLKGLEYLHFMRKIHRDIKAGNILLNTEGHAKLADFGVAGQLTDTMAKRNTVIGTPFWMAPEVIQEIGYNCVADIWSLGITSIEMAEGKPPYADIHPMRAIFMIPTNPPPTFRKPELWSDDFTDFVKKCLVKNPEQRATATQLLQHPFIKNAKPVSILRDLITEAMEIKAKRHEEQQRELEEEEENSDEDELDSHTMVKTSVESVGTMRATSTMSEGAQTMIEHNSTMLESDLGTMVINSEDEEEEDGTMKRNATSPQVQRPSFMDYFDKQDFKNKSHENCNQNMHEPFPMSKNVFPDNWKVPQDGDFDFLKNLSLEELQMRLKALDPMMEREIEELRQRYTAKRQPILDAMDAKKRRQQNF
LCK (human), sequence (P06239 whole entry, looked up): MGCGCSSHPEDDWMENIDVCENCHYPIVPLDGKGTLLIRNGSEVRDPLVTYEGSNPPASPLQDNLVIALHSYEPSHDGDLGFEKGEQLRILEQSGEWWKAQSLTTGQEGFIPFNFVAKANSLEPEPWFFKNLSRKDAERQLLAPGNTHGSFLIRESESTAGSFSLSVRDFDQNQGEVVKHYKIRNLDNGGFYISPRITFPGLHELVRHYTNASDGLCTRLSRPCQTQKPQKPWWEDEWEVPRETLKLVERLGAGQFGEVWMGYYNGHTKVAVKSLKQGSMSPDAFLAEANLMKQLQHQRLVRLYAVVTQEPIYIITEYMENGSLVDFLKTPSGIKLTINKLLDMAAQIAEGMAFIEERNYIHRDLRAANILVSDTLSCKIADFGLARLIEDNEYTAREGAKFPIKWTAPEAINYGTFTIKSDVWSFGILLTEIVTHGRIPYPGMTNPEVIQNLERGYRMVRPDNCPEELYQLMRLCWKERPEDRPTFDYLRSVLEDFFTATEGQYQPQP
MST4 (human), sequence (Q9P289 whole entry, looked up): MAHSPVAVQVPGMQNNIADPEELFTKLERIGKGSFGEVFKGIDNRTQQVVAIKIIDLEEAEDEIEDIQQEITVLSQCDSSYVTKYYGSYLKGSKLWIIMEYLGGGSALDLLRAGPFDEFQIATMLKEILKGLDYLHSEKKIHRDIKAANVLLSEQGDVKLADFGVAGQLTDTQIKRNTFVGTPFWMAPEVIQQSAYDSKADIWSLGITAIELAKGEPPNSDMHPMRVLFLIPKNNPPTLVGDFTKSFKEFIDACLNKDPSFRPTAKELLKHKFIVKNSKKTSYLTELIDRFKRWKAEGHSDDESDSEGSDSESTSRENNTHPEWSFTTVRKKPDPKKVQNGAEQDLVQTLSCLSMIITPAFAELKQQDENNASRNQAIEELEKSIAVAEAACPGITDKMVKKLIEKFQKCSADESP
CAMK1G (human), sequence (Q96NX5 whole entry, looked up): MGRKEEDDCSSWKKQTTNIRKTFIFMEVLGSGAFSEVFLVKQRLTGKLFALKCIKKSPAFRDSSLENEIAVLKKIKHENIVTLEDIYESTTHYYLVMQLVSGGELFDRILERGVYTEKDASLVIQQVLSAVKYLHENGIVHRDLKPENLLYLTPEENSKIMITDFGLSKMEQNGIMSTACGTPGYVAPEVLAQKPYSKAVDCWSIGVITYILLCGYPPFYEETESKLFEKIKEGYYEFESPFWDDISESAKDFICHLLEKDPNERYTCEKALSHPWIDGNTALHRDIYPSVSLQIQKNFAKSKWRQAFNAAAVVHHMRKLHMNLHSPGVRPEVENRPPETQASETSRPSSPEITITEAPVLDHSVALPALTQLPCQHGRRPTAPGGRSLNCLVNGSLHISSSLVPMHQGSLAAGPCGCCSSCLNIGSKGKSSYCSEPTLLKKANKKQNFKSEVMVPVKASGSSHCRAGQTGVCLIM
FER (human), sequence (P16591 whole entry, looked up): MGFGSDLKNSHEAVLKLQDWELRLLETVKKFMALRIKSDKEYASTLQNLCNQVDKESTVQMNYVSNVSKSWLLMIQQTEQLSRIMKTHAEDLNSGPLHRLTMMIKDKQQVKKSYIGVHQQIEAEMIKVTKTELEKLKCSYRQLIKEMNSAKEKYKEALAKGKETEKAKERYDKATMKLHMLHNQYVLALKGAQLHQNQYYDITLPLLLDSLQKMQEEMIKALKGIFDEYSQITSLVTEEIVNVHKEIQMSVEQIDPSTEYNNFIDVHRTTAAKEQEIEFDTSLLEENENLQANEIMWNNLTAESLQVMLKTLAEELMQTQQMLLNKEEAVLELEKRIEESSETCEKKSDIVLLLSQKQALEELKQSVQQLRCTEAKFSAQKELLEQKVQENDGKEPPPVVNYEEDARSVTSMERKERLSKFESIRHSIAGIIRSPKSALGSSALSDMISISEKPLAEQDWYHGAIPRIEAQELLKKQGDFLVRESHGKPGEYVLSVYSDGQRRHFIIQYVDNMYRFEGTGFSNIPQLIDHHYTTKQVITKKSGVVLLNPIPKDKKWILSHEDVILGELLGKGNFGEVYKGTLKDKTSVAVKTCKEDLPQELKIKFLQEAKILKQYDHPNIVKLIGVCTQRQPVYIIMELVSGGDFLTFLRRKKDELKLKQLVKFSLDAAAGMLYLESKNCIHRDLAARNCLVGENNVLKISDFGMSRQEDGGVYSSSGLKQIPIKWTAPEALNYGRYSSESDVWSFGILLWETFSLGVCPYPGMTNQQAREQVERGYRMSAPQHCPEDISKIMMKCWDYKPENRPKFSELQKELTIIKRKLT
ULK2 (human), sequence (Q8IYT8 whole entry, looked up): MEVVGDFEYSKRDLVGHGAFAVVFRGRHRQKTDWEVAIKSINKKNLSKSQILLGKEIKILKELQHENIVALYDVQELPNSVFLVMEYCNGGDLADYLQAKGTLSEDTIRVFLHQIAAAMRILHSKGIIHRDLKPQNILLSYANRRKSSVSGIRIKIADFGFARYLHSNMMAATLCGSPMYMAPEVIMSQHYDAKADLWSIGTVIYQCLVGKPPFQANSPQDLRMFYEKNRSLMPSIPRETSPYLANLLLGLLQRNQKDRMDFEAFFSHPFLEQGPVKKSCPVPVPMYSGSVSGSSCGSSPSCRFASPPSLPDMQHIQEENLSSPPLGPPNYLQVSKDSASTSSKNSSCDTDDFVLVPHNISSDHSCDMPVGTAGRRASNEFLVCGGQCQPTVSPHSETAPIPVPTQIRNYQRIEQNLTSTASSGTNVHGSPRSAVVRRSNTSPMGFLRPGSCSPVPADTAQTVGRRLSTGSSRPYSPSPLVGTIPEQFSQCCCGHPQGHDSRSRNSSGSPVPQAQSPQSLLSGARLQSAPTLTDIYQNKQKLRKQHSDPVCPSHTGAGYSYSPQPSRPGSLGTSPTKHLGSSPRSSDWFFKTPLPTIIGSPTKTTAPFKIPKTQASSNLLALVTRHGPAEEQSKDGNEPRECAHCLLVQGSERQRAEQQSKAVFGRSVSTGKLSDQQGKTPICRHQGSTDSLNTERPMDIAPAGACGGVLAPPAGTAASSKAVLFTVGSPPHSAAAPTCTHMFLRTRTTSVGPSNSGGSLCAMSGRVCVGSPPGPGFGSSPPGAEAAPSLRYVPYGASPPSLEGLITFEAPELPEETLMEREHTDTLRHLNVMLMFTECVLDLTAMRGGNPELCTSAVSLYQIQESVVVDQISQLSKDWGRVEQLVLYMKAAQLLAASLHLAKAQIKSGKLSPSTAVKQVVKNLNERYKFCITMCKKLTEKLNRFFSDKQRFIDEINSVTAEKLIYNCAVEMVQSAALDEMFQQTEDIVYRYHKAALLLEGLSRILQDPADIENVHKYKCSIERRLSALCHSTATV
ACVRL1 (human), sequence (P37023 whole entry, looked up): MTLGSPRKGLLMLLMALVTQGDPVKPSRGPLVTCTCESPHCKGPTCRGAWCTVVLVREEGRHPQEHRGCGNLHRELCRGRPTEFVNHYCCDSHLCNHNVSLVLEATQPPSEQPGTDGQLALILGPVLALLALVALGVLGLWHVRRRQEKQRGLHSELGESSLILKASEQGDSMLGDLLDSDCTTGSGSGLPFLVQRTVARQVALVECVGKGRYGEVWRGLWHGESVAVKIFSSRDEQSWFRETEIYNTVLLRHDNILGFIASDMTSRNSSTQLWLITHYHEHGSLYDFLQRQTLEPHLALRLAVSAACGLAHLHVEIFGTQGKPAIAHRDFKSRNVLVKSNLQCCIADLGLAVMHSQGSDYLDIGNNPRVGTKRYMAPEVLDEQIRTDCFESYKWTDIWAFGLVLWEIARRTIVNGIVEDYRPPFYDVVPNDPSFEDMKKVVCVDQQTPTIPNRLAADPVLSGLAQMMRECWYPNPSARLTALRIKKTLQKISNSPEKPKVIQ

COc1cc2ncnc(Nc3ccc(Oc4ccccc4)cc3)c2cc1OC
residual activity [1]: 106%
residual activity [2]: 108%
residual activity [3]: 98%
residual activity [4]: 97.8%
residual activity [5]: 98.2%
residual activity [6]: 75.7%
residual activity [7]: 99.7%
residual activity [8]: 96.4%
residual activity [9]: 108%
residual activity [10]: 81.2%
residual activity [11]: 93.1%
residual activity [12]: 106%
residual activity [13]: 72.2%
residual activity [14]: 93.7%
residual activity [15]: 9.95%
residual activity [16]: 83.4%
residual activity [17]: 93%
residual activity [18]: 100%
residual activity [19]: 121%
residual activity [20]: 103%
residual activity [21]: 65.3%
residual activity [22]: 85.9%
residual activity [23]: 105%
residual activity [24]: 111%
residual activity [25]: 97.8%
residual activity [26]: 102%
residual activity [27]: 97.4%
residual activity [28]: 91.8%
residual activity [29]: 95.6%
residual activity [30]: 93.6%
residual activity [31]: 4.72%
residual activity [32]: 94.8%
residual activity [33]: 97.1%
residual activity [34]: 107%
residual activity [35]: 103%
residual activity [36]: 103%
residual activity [37]: 102%
residual activity [38]: 95.6%
residual activity [39]: 97.8%
residual activity [40]: 101%
residual activity [41]: 94.8%
residual activity [42]: 57.7%

CN(C)CCCn1cc(C2=C(c3c[nH]c4ccccc34)C(=O)NC2=O)c2ccccc21
residual activity [1]: 119%
residual activity [2]: 73.3%
residual activity [3]: 93.7%
residual activity [4]: 75.7%
residual activity [5]: 84.2%
residual activity [6]: 69.8%
residual activity [7]: 99.7%
residual activity [8]: 96.3%
residual activity [9]: 11.6%
residual activity [10]: 92%
residual activity [11]: 90.8%
residual activity [12]: 90.8%
residual activity [13]: 92.3%
residual activity [14]: 95.4%
residual activity [15]: 87%
residual activity [16]: 97.2%
residual activity [17]: 110%
residual activity [18]: 107%
residual activity [19]: 44.2%
residual activity [20]: 28%
residual activity [21]: 89.8%
residual activity [22]: 83.6%
residual activity [23]: 31.5%
residual activity [24]: 96.2%
residual activity [25]: 145%
residual activity [26]: 37.2%
residual activity [27]: 59%
residual activity [28]: 113%
residual activity [29]: 71.6%
residual activity [30]: 92.8%
residual activity [31]: 91.8%
residual activity [32]: 86.9%
residual activity [33]: 84.5%
residual activity [34]: 80.8%
residual activity [35]: 60.4%
residual activity [36]: 87.1%
residual activity [37]: 67.6%
residual activity [38]: 78.1%
residual activity [39]: 89.5%
residual activity [40]: 97.4%
residual activity [41]: 77.5%
residual activity [42]: 46%

CN(C)S(=O)(=O)c1ccc2c(c1)/C(=C/c1cc3c([nH]1)CCCC3)C(=O)N2
residual activity [1]: 107%
residual activity [2]: 84.2%
residual activity [3]: 99.8%
residual activity [4]: 89.6%
residual activity [5]: 96.1%
residual activity [6]: 51.8%
residual activity [7]: 95.4%
residual activity [8]: 56.8%
residual activity [9]: 96.5%
residual activity [10]: 75.4%
residual activity [11]: 65.4%
residual activity [12]: 101%
residual activity [13]: 86%
residual activity [14]: 49.3%
residual activity [15]: 13.9%
residual activity [16]: 57.2%
residual activity [17]: 94.6%
residual activity [18]: 102%
residual activity [19]: 24.3%
residual activity [20]: 32.1%
residual activity [21]: 1.78%
residual activity [22]: 88.7%
residual activity [23]: 96.7%
residual activity [24]: 98%
residual activity [25]: 26.3%
residual activity [26]: 45.6%
residual activity [27]: 92.6%
residual activity [28]: 98.8%
residual activity [29]: 102%
residual activity [30]: 90.4%
residual activity [31]: 34.7%
residual activity [32]: 67.2%
residual activity [33]: 79.8%
residual activity [34]: 104%
residual activity [35]: 82.3%
residual activity [36]: 103%
residual activity [37]: 55.4%
residual activity [38]: 96.5%
residual activity [39]: 96.6%
residual activity [40]: 97.1%
residual activity [41]: 98.2%
residual activity [42]: 74.6%

Cc1nc(-c2ccccc2)c(-c2ccncc2)o1
residual activity [1]: 105%
residual activity [2]: 109%
residual activity [3]: 99.2%
residual activity [4]: 101%
residual activity [5]: 98.7%
residual activity [6]: 84.9%
residual activity [7]: 101%
residual activity [8]: 92.8%
residual activity [9]: 92.8%
residual activity [10]: 90.8%
residual activity [11]: 123%
residual activity [12]: 101%
residual activity [13]: 103%
residual activity [14]: 108%
residual activity [15]: 95.4%
residual activity [16]: 109%
residual activity [17]: 96.2%
residual activity [18]: 95.9%
residual activity [19]: 104%
residual activity [20]: 98.2%
residual activity [21]: 96.8%
residual activity [22]: 90.7%
residual activity [23]: 106%
residual activity [24]: 116%
residual activity [25]: 102%
residual activity [26]: 114%
residual activity [27]: 96%
residual activity [28]: 102%
residual activity [29]: 95.6%
residual activity [30]: 98.4%
residual activity [31]: 99.7%
residual activity [32]: 103%
residual activity [33]: 94.3%
residual activity [34]: 109%
residual activity [35]: 98.3%
residual activity [36]: 102%
residual activity [37]: 99%
residual activity [38]: 109%
residual activity [39]: 97.2%
residual activity [40]: 92.8%
residual activity [41]: 95.5%
residual activity [42]: 79.4%
